The values that follow come from patent US7268161B2, “Comprehensive pharmacologic therapy for treatment of obesity including cysteine” (priority 1999, dated 2007).

One experiment deals with norepinephrine. Conditions: drugs used in treatment of a patient for weight loss; cited from earlier work.
The subject of the next experiment is tachyphylaxis. Nature of the experiment: Cysteine therapy in patients with tachyphylaxis from drugs that increase synaptic norepinephrine. It counts as in vivo. The conditions noted are these: patients on drugs which cause increased levels of norepinephrine in the synapse. An excerpt:
The core of Tyrosine Hydroxylase is a “heme-thiolate” protein (see FIG. 1). The “heme-thiolate” protein is composed of iron in the form of a cytochrome P-450 complex and Cysteine. Patients experiencing tachyphylaxis from drugs which cause increased levels of norepinephrine in the synapse, generally have serum iron levels which are normal.

On to `CC(C)(N)Cc1ccccc1` [Phentermine], for which the “increase of intersynaptic levels of norepinephrine” value in the experiment with norepinephrine was ≥ 2,500 times.

Turning to `N[C@@H](CS)C(=O)O` [Cysteine], the reversal of tachyphylaxis result with tachyphylaxis is “effective in reversing the tachyphylaxis”.
